Experimental data published in patent EP2253617A1, “Halogenated compounds as pesticides” (Bayer CropScience AG, priority 2009, dated 2010).
Read-outs that look alike come from different tables or passages of the source.

Assays:
Ctenocephalides felis = Ctenocephalides felis oral test (CTECFE); type: in vivo; conditions: 100 ppm in citrated cattle blood, oral uptake, adult fleas, after 2 days; 100 % = all fleas killed
Method: Ctenocephalides felis oral (CTECFE)
Lösungsmittel: 1 Gewichtsteil Dimethylsulfoxid
Zwecks Herstellung einer zweckmäßigen Wirkstoffzubereitung vermischt man 10 mg Wirkstoff mit 0,5 ml Dimethylsulfoxid. Ein Teil des Konzentrats wird mit citriertem Rinderblut verdünnt und die gewünschte Konzentration hergestellt.
20 nüchterne adulte Flöhe (Ctenocephalides felis) werden in eine Kammer eingesetzt, die oben und unten mit Gaze verschlossen ist. Auf die Kammer wird ein Metallzylinder gestellt, dessen Unterseite mit Parafilm verschlossen ist. Der Zylinder enthält die Blut-Wirkstoffzubereitung, die von den Flöhen durch die Parafilmmembran aufgenommen werden kann. Nach 2 Tagen wird die Abtötung in % bestimmt. Dabei bedeutet 100 %, dass alle Flöhe abgetötet wurden; 0 % bedeutet, dass kein Floh abgetötet wurde.

Lucilia cuprina Larven = experiment: Lucilia cuprina test (LUCICU); type: in vivo; conditions: 100 ppm, treated horse meat, larvae, after 2 days; 100 % = all larvae killed
Method: Lucilia cuprina-Test (LUCICU)
(§1) Lösungsmittel: Dimethylsulfoxid
Zur Herstellung einer zweckmäßigen Wirkstoffzubereitung vermischt man 10 mg Wirkstoff mit 0,5 ml Dimethylsulfoxid und verdünnt das Konzentrat mit Wasser auf die gewünschte Konzentration.Gefäße, die Pferdefleisch enthalten, das mit der Wirkstoffzubereitung der gewünschten Konzentration behandelt wurde, werden mit Lucilia cuprina Larven besetzt.
Nach 2 Tagen wird die Abtötung in % bestimmt. Dabei bedeutet 100 %, dass alle Larven abgetötet wurden; 0 % bedeutet, dass keine Larven abgetötet wurden.

Boophilus microplus = Boophilus microplus test (BOOPMI injection); type: in vivo; conditions: 20 µg / Tier, injection into the abdomen, after 7 days; 100 % = no tick laid fertile eggs
Method: Boophilus microplus -Test (BOOPMI Injektion)
as §1
Zur Herstellung einer zweckmäßigen Wirkstoffzubereitung vermischt man 10 mg Wirkstoff mit 0,5 ml Lösungsmittel und verdünnt das Konzentrat mit Wasser auf die gewünschte Konzentration. Die Wirkstofflösung wird in das Abdomen (Boophilus microplus) injiziert, die Tiere werden in Schalen überführt und in einem klimatisierten Raum aufbewahrt. Die Wirkungskontrolle erfolgt auf Ablage fertiler Eier. Nach 7 Tagen wird die Wirkung in % bestimmt. Dabei bedeutet 100%, dass keine Zecke fertile Eier gelegt hat.

Phaedon cochleariae = experiment: Phaedon test (PHAECO spray treatment); type: in vivo; conditions: sprayed Chinese cabbage leaf discs, larvae, after 7 days, 100 % = all beetle larvae killed
Source text: Phaedon-Test (PHAECO Spritzbehandlung)
(§2) • Lösungsmittel: 78,0 GewichtsteileAceton 1,5 Gewichtsteile Dimethylformamid • Emulgator: 0,5 Gewichtsteile Alkylarylpolyglykolether
(§3) Zur Herstellung einer zweckmäßigen Wirkstoffzubereitung vermischt man 1 Gewichtsteil Wirkstoff mit den angegebenen Mengen Lösungsmittel und Emulgator und verdünnt das Konzentrat mit emulgatorhaltigem Wasser auf die gewünschte Konzentration.
Chinakohlblattscheiben (Brassica pekinensis) werden mit einer Wirkstoffzubereitung der gewünschten Konzentration gespritzt und nach dem Abtrocknen mit Larven des Meerrettichblattkäfers (Phaedon cochleariae) besetzt.
Nach 7 Tagen wird die Wirkung in % bestimmt. Dabei bedeutet 100 %, dass alle Käferlarven abgetötet wurden; 0 % bedeutet, dass keine Käferlarven abgetötet wurden.

Spodoptera frugiperda = Spodoptera frugiperda test (SPODFR spray treatment); type: in vivo; conditions: 500 g/ha, sprayed maize leaf discs, caterpillars, after 7 days; 100 % = all caterpillars killed
Source text: Spodoptera frugiperda-Test (SPODFR Spritzbehandlung)
as §2, §3
Maisblattscheiben (Zea mays) werden mit einer Wirkstoffzubereitung der gewünschten Konzentration gespritzt und nach dem Abtrocknen mit Raupen des Heerwurms (Spodoptera frugiperda) besetzt.Nach 7 Tagen wird die Wirkung in % bestimmt. Dabei bedeutet 100 %, dass alle Raupen abgetötet wurden; 0 % bedeutet, dass keine Raupe abgetötet wurde.

Tetranychus urticae = type: in vivo; conditions: foliar, 144 h
Source text: Tetranychus-Test, OP-resistent (TETRUR Spritzbehandlung)
as §2, §3
Bohnenblattscheiben (Phaseolus vulgaris), die von allen Stadien der Gemeinen Spinnmilbe (Tetranychus urticae) befallen sind, werden mit einer Wirkstoffzubereitung der gewünschten Konzentration gespritzt.
Nach 6 Tagen wird die Wirkung in % bestimmt. Dabei bedeutet 100 %, dass alle Spinnmilben abgetötet wurden; 0 % bedeutet, dass keine Spinnmilben abgetötet wurden.

physchem [1] = experiment: physchem
physchem [2] = experiment: physchem; remark: listed apart in the source

SMILES | Wirkung (Abtötung in %) (Ctenocephalides felis) [%] | Wirkung (Abtötung in %) (Lucilia cuprina Larven) [%] | Wirkung (Boophilus microplus) [%] | Wirkung (Phaedon cochleariae; 500 g/ha) [%] | Wirkung (Spodoptera frugiperda) [%] | Wirkung (Tetranychus urticae; 500 g/ha) [%] | chromatographic logP (physchem [1]) | chromatographic logP (physchem [2]) | Wirkung (Phaedon cochleariae; 100 g/ha) [%] | Wirkung (Tetranychus urticae; 100 g/ha) [%]
Cn1nc(C(F)(F)C(F)(F)F)c(C(F)(F)F)c1C(=O)Nc1ccc(Cl)c(C(=O)Nc2ccccc2)c1 [Ia-15] | 100 | 100 | 100 | 100 | 100 | 90 | 3.84 | – | – | –
O=C(Nc1ccc(F)cc1)c1cc(NC(=O)c2cnc(C(F)(F)C(F)(F)F)nc2C(F)(F)C(F)(F)F)ccc1Cl [Ia-34] | – | – | – | 100 | 100 | 80 | – | 4.36 | – | –
COc1cccc(NC(=O)c2cc(NC(=O)c3c(C(F)(F)F)c(C(F)(F)C(F)(F)F)nn3C)ccc2Cl)c1 [Ia-16] | 95 | 90 | 100 | 100 | 100 | 80 | 3.84 | – | – | –
O=C(Nc1ccc(F)cc1)c1cc(NC(=O)c2cnc(C(F)(F)C(F)(F)F)nc2C(F)(F)F)ccc1Cl [Ia-20] | – | – | – | 100 | 100 | – | – | 3.98 | – | –
Cn1nc(C(F)(F)C(F)(F)F)c(C(F)(F)F)c1C(=O)Nc1ccc(Cl)c(C(=O)Nc2cccc(Cl)c2)c1 [Ia-30] | 90 | 100 | 100 | 100 | 100 | 90 | 4.28 | – | – | –
Cn1nc(C(F)(F)C(F)(F)F)c(C(F)(F)F)c1C(=O)Nc1ccc(Cl)c(C(=O)Nc2ccc(C(F)(F)F)cc2)c1 [Ia-36] | – | 90 | 100 | 100 | 100 | – | 4.4 | – | – | –
Cn1nc(C(F)(F)C(F)(F)F)c(C(F)(F)F)c1C(=O)Nc1ccc(Cl)c(C(=O)Nc2ccc(Cl)nc2)c1 [Ia-11] | 80 | 100 | 100 | 100 | 100 | 90 | 3.68 | – | – | –
Cn1nc(C(F)(F)C(F)(F)F)c(C(F)(F)F)c1C(=O)Nc1ccc(Cl)c(C(=O)Nc2ccccn2)c1 [Ia-8, N-[4-Chlor-3-(pyrid-2-yl-carbamoyl)phenyl]-1-methyl-3-(pentafluorethyl)-4-(trifluormethyl)-1H-pyrazol-5-carboxamid] | 100 | 100 | 100 | 100 | 100 | 80 | 3.53 | – | – | –
O=C(Nc1ccc(F)cc1)c1cc(NC(=O)c2cnc(C(F)(F)C(F)(F)F)nc2C(F)F)ccc1Cl [Ia-10] | – | – | – | 100 | – | – | – | 3.67 | – | –
Cn1nc(Cn2nc(C(F)(F)C(F)(F)F)cc2C(F)(F)C(F)(F)F)c(C(F)(F)F)c1C(=O)Nc1ccc(Cl)c(C(=O)Nc2ccc(F)cc2)c1 [Ia-43] | – | – | – | 100 | 100 | – | – | 4.99 | – | –
O=C(Nc1cccc(Cl)c1)c1cc(NC(=O)c2cnc(C(F)(F)C(F)(F)F)nc2C(F)F)ccc1Cl [Ia-25] | – | – | – | 100 | 100 | – | – | 4.08 | – | –
Cn1nc(C(F)(F)C(F)(F)F)c(C(F)(F)F)c1C(=O)Nc1ccc(Cl)c(C(=O)Nc2ccccc2F)c1 [Ia-18, N-{4-Chlor-3-[(2-fluorphenyl)carbamoyl]phenyl}-1-methyl-3-(pentafluorethyl)-4-(trifluormethyl)-1H-pyrazol-5-carboxamid] | 100 | – | 100 | 100 | 100 | 100 | 3.94 | – | – | –
Cc1nc(C(F)(F)F)ccc1C(=O)Nc1ccc(Cl)c(C(=O)Nc2cccc(Cl)c2)c1 [Ia-9] | – | – | – | 80 | – | – | – | 3.6 | – | –
O=C(Nc1ccc(F)cc1)c1cc(NC(=O)c2cnc(C(F)(F)C(F)(F)F)nc2C2CC2)ccc1Cl [Ia-24] | – | – | – | 100 | 100 | – | – | 4.08 | – | –
Cn1nc(C(F)(F)C(F)(F)F)c(Br)c1C(=O)Nc1ccc(Cl)c(C(=O)Nc2ccc(Cl)cc2)c1 [Ia-38] | – | – | – | 80 | – | – | – | 4.43 | – | –
Cc1cc(NC(=O)c2cc(NC(=O)c3c(C(F)(F)F)c(C(F)(F)C(F)(F)F)nn3C)ccc2Cl)ccc1F [Ia-29] | 90 | 100 | 100 | 100 | 100 | – | 4.23 | – | – | –
O=C(Nc1cccc(Cl)c1)c1cc(NC(=O)c2cnc(C(F)(F)C(F)(F)F)nc2C2CC2)ccc1Cl [Ia-40] | – | – | – | – | 100 | – | – | 4.54 | – | –
Cc1nc(C(F)(F)F)ccc1C(=O)Nc1ccc(Cl)c(C(=O)Nc2ccc(F)cc2)c1 [Ia-3, N-{4-Chlor-3-[(4-fluorphenyl)carbamoyl]phenyl}-2-methyl-6-(trifluormethyl)nicotinamid] | – | – | – | 100 | 100 | – | – | 3.15 | – | –
Cn1nc(C(F)(F)C(F)(F)F)c(C(F)(F)F)c1C(=O)Nc1ccc(Br)c(C(=O)Nc2ccc(F)cc2)n1 [Ic-1, N-[3-Brom-2-(4-fluor-phenylcarbamoyl)pyrid-6-yl]-1-methyl-3-(pentafluorethyl)-4-(trifluormethyl)-1H-pyrazol-5-carbonsäureamid] | – | – | – | 100 | 100 | – | – | 4.45 | – | –
Cn1nc(C(F)(F)F)c(Br)c1C(=O)Nc1ccc(Cl)c(C(=O)Nc2ccc(Cl)nc2)c1 [Ia-7] | – | – | – | – | – | – | – | 3.42 | 100 | 80
Cn1nc(C(F)(F)C(F)(F)F)c(C(F)(F)F)c1C(=O)Nc1ccc(Cl)c(C(=O)Nc2ccc(Cl)cc2)c1 [Ia-28] | 80 | 100 | 100 | 100 | 100 | 80 | 4.23 | – | – | –
Cn1nc(C(F)(F)C(F)(F)F)c(C(F)(F)F)c1C(=O)Nc1ccc(Cl)c(C(=O)Nc2ccccc2Cl)c1 [Ia-31] | 95 | – | – | 100 | 100 | – | 4.28 | – | – | –
Cn1nc(C(F)(F)C(F)(F)F)c(C(F)(F)F)c1C(=O)Nc1ccc(Cl)c(C(=O)Nc2cccnc2)c1 [Ia-2] | 100 | – | 100 | 100 | 100 | 90 | 2.69 | – | – | –
O=C(Nc1cccc(Cl)c1)c1cc(NC(=O)c2cnc(C(F)(F)C(F)(F)F)nc2C(F)(F)F)ccc1Cl [Ia-32, N-{4-Chlor-3-[(3-chlorphenyl)carbamoyl]phenyl}-2-(pentafluorethyl)-4-(trifluormethyl)pyrimidin-5-carboxamid] | – | – | – | 100 | 100 | – | – | 4.32 | – | –
